Read-outs that look alike come from different tables or passages of the source.

The values below come from US20240043448A1, “Small Molecule Inhibitors of KRAS G12C Mutant” (Merck Sharp & Dohme LLC, priority 2019, published 2024).

In experiment [1] the test system is phospho-ERK. Kind of experiment: Cellular phospho-ERK assay. It counts as cell-based. Particulars: NCI-H358 cells, 2 hour incubation, ratio of p-Erk vs total Erk, read-out: IC50 (nM) pERK (Cell). In short, it runs like this: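 NCI-H358 cells seeded overnight, then exposed to compound dose-response titrations for 2 hours at 37° C. in RPMI. Lysates assayed by AlphaLISA SureFire Ultra multiplex for p-Erk and total Erk; ratio p-Erk/total Erk used as readout, IC50 from 4-parameter logistic fit.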

The target in experiment [2] is Biotinylated KRAS G12C protein (Homo sapiens (Human), UniProt P01116, C118S/C51S/C80L/G12C). Put plainly: SOS-catalyzed nucleotide exchange assay (TR-FRET). It counts as biochemical. Particulars: in vitro apparent potency; preincubation time of 60 minutes prior to addition of SOS. In short, it runs like this:
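Biotinylated KRAS G12C preloaded with Bodipy-GDP and Tb-streptavidin, then incubated with compound (10-point, 3-fold series) for 60 min at RT. Exchange started with SOS and GTP for 60 min. TR-FRET 520/495 ratio normalised to DMSO and saturating-inhibitor controls; four-parameter fit.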
On the technique in general: In TR-FRET formats the signal depends on donor and acceptor labels being close together.

Chain of Biotinylated KRAS G12C protein (P01116 other isoform, or with tags, fused parts or gaps, stated change not applied): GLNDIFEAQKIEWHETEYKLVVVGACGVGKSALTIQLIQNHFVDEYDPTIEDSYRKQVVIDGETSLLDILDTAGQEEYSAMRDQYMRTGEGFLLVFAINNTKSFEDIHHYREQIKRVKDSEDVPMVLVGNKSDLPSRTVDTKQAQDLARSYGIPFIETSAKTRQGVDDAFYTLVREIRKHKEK

For orientation: IC50 means the concentration that inhibits the measured activity by half. As for `C=CC(=O)N1C[C@H](C)N(c2nc(=O)n3c4nc(c(F)cc24)-c2c(ccc(F)c2F)OCC2(CCc4ccnc(C(C)C)c4-3)CC2)C[C@H]1C` [Example 62, 2′-[(2S,5R)-2,5-dimethyl-4-(prop-2-enoyl)piperazin-1-yl]-17′,18′,21′-trifluoro-6′-(propan-2-yl)-10′,11′-dihydro-4′H,13′H-spiro[cyclopropane-1,12′-[14]oxa [3,5,7,20]tetraaza[1,19] (ethanediylidene)pyrido[4,3-f]pyrimido[1,6-h][1,8,10]benzoxadiazacyclotri-decin]-4′-one], the IC50 was found to be 54 nM in experiment [1] (Homo sapiens, NCI-H358, 2 h) and 3.5 nM in experiment [2].
On to `C=CC(=O)N1CCN(c2nc(=O)n3c4nc(c(F)cc24)-c2c(F)cccc2OCCCCc2ccnc(C(C)C)c2-3)[C@H](C)C1` [Example 4b, 18,21-Difluoro-2-[(2S)-2-methyl-4-(prop-2-enoyl)piperazin-1-yl]-6-(propan-2-yl)-10,11,12,13-tetrahydro-4H-1,19-ethenopyrido[4,3-f]pyrimido[1,6-h][1,8,10]benzoxadiazacyclotridecin-4-one], for which the results for the IC50 in experiment [1] and in experiment [2] were 1160 nM and 6890 nM, respectively.
Take `C=CC(=O)N1C[C@H](C)N(c2nc(=O)n3c4nc(c(F)cc24)-c2c(Cl)cccc2OCCCc2ccnc(C(C)C)c2-3)C[C@H]1C` [Example 76, 17-chloro-2-[(2S,5R)-2,5-dimethyl-4-(prop-2-enoyl)piperazin-1-yl]-20-fluoro-6-(propan-2-yl)-11,12-dihydro-4H,10H-1,18-ethenopyrido[4,3-e]pyrimido[1,6-g][1,7,9]benzoxadiazacyclododecin-4-one]: the IC50 in experiment [1] (Homo sapiens, NCI-H358, 2 h) stood at 3.6 nM; in experiment [2], 2.3 nM.
As to `C=CC(=O)N1C[C@H](C)N(c2nc(=O)n3c4nc(c(F)cc24)-c2c(F)c(F)cc(F)c2OCCCc2ccnc(C(C)C)c2-3)C[C@H]1C` [Example 77, 2-[(2S,5R)-2,5-dimethyl-4-(prop-2-enoyl)piperazin-1-yl]-14,16,17,20-tetrafluoro-6-(propan-2-yl)-11,12-dihydro-4H,10H-1,18-ethenopyrido[4,3-e]pyrimido[1,6-g][1,7,9]benzoxadiazacyclododecin-4-one], the IC50 in experiment [1] (Homo sapiens, NCI-H358, 2 h) worked out at 45 nM; in experiment [2], 2.4 nM.
As for `C=CC(=O)N1C[C@H](C)N(c2nc(=O)n3c4nc(c(F)cc24)-c2cc(C(F)(F)F)ccc2OCCOc2ccnc(C(C)C)c2-3)C[C@H]1C` [Example 86, 2-[(2S,5R)-2,5-dimethyl-4-(prop-2-enoyl)piperazin-1-yl]-20-fluoro-6-(propan-2-yl)-16-(trifluoromethyl)-11,12-dihydro-4H-1,18-(ethanediylidene)pyrido[4,3-e]pyrimido[1,6-g][1,4,7,9] benzodioxadiazacyclododecin-4-one], the IC50 in experiment [1] (Homo sapiens, NCI-H358, 2 h) worked out at 389 nM; in experiment [2], 64 nM.
As to `C=CC(=O)N1CCN(c2nc(=O)n3c4nc(c(F)cc24)-c2c(F)cccc2C(=O)NCCCc2ccnc(C(C)C)c2-3)[C@@H](C)C1` (single isomer, unassigned) [Example 19a], the IC50 amounted to 117 nM in experiment [1] and 6.8 nM in experiment [2].
On to `C=CC(=O)N1C[C@H](C)N(c2nc(=O)n3c4nc(c(F)cc24)-c2cccc4cnn(c24)CCCCc2ccnc(C(C)C)c2-3)C[C@H]1C` [Example 68, 2-[(2S,5R)-2,5-dimethyl-4-(prop-2-enoyl)piperazin-1-yl]-22-fluoro-6-(propan-2-yl)-10,11,12,13-tetrahydro-4H-1,20-(ethanediylidene)pyrido [4′,3′:12,13]pyrimido [1′,6′:1,2][1,3,7]triaza-cyclotridecino[5,6,7-hi] indazol-4-one], for which the IC50 in experiment [1] (Homo sapiens, NCI-H358, 2 h) is 6.3 nM; in experiment [2] it was 4.5 nM.
Take `C=CC(=O)N1C[C@H](C)N(c2nc(=O)n3c4nc(c(F)cc24)-c2c(F)cccc2OCCCCc2cnc(C(C)C)c-3c2C)C[C@H]1C` (single isomer, unassigned) [Example 89]: the values for the IC50 in experiment [1] and in experiment [2] were 4160 nM and 71 nM, respectively.
As to `[2H]C1([2H])Oc2ccnc(C(C)C)c2-n2c(=O)nc(N3C[C@@H](C)N(C(=O)C=C)C[C@@H]3C)c3cc(F)c(nc32)-c2c(F)ccc(F)c2OC1([2H])[2H]` [Example 67, 2-[(2S,5R)-2,5-Dimethyl-4-(prop-2-enoyl)piperazin-1-yl]-14,17,20-trifluoro-6-(propan-2-yl)-11,12-di[(^2H)hydro](11,12-^2H2)-4H-1,18-(ethanediylidene)pyrido [4,3-e]pyrimido[1,6-g][1,4,7,9] benzodioxadiazacyclo-dodecin-4-one], the IC50 in experiment [1] (Homo sapiens, NCI-H358, 2 h) worked out at 50 nM; in experiment [2], 12 nM.
In the case of `C=CC(=O)N1CCN(c2nc(=O)n3c4nc(c(F)cc24)-c2c(F)cccc2OCCCCc2ccnc(C(C)C)c2-3)[C@@H](C)C1` (single isomer, unassigned) [Example 4a], the IC50 in experiment [1] amounted to 1.5 nM; in experiment [2], 2.4 nM.
Turning to `C=CC(=O)N1C[C@@H](C)N(c2nc(=O)n3c4nc(c(Cl)cc24)-c2c(F)ccc(F)c2OCCOc2ccnc(C(C)C)c2-3)C[C@@H]1C` [Example 51-1, (5aSa,17aRa)-20-Chloro-2-[(2S,5R)-2,5-dimethyl-4-(prop-2-enoyl)piperazin-1-yl]-14,17-difluoro-6-(propan-2-yl)-11,12-di[(^2H)hydro](11,12-^2H2)-4H-1,18-(ethanediylidene)pyrido[4,3-e]pyrimido[1,6-g][1,4,7,9]benzodioxadiazacyclododecin-4-one], the values for the concentration for half-maximal inhibition (IC50) in experiment [1] and in experiment [2] were 13 nM and 1 nM, respectively.
In the case of `C=CC(=O)N1C[C@H](C)N(c2nc(=O)n3c4nc(c(F)cc24)-c2c(ccc(F)c2F)OCCC(C)c2ccnc(C(C)C)c2-3)C[C@H]1C` (stereo partly drawn) [Example 90, 2-[(2S,5R)-2,5-dimethyl-4-(prop-2-enoyl)piperazin-1-yl]-16,17,20-trifluoro-10-methyl-6-(propan-2-yl)-11,12-dihydro-4H,10H-1,18-ethenopyrido[4,3-e]pyrimido[1,6-g][1,7,9]benzoxadiazacyclododecin-4-one], the IC50 in experiment [1] (Homo sapiens, NCI-H358, 2 h) amounted to 6.8 nM; in experiment [2], 1.4 nM.
In the same order, the values of `[2H]C1([2H])Oc2ccc(F)c(F)c2-c2nc3c(cc2Cl)c(N2CC(C)N(C(=O)C=C)CC2C)nc(=O)n3-c2c(ccnc2C(C)C)OC1([2H])[2H]` [Example 57, (5aSa,17aRa)-20-chloro-2-[(2S,5R)-2,5-dimethyl-4-(prop-2-enoyl)piperazin-1-yl]-16,17-difluoro-6-(propan-2-yl)-11,12-di[(^2H)hydro](11,12-^2H2)-4H-1,18-(ethanediylidene)pyrido [4,3-e]pyrimido[1,6-g] [1,4,7,9]benzodioxadiaza-cyclododecin-4-one] are 6.1 nM and 0.51 nM.
In the same order, the values of `C=CC(=O)N1C[C@H](C)N(c2nc(=O)n3c4nc(c(F)cc24)-c2c(F)cccc2OCCCc2ccnc(C(C)C)c2-3)C[C@H]1C` [Example 75, 2-[(2S,5R)-2,5-dimethyl-4-(prop-2-enoyl)piperazin-1-yl]-17,20-difluoro-6-(propan-2-yl)-11,12-dihydro-4H,10H-1,18-ethenopyrido[4,3-e]pyrimido[1,6-g][1,7,9]benzoxadiazacyclododecin-4-one] are 8.8 nM and 1.7 nM.
Turning to `C=CC(=O)N1CCN(c2nc(=O)n3c4nc(c(F)cc24)-c2cccc4cnn(c24)CCCOc2ccnc(C(C)C)c2-3)[C@@H](C)C1` [Example 3a, 22-fluoro-2-[(2S)-2-methyl-4-(prop-2-enoyl)piperazin-1-yl]-6-(propan-2-yl)-12,13-dihydro-4H,11H-1,20-ethenopyrido[4′,3′:2,3]pyrimido[1′,6′:4,5][1,4,6,10]oxatriazacyclotridecino[8,9,10-hi]indazol-4-one], the IC50 in experiment [1] stood at 19100 nM; in experiment [2] it was 4420 nM.
Take `C=CC(=O)N1C[C@H](C)N(c2nc(=O)n3c4nc(c(F)cc24)-c2c(Cl)cccc2OCCOc2ccnc(C(C)C)c2-3)C[C@H]1C` [Example 83, 17-chloro-2-[(2S,5R)-2,5-dimethyl-4-(prop-2-enoyl)piperazin-1-yl]-20-fluoro-6-(propan-2-yl)-11,12-dihydro-4H-1,18-(ethanediylidene)pyrido[4,3-e]pyrimido[1,6-g][1,4,7,9]benzodioxadiazacyclododecin-4-one]: the IC50 in experiment [1] (Homo sapiens, NCI-H358, 2 h) is 8.9 nM; in experiment [2], 11 nM.
On to `C=CC(=O)N1C[C@H](C)N(c2nc(=O)n3c4nc(c(F)cc24)-c2c(F)cccc2OCCCCc2ccnc(C(C)C)c2-3)C[C@H]1C` [Example 8, 2-[(2S,5R)-2,5-dimethyl-4-(prop-2-enoyl)piperazin-1-yl]-18,21-difluoro-6-(propan-2-yl)-10,11,12,13-tetrahydro-4H-1,19-ethenopyrido[4,3-f]-pyrimido[1,6-h][1,8,10]ben-zoxadiazacyclotridecin-4-one], for which the IC50 in experiment [1] (Homo sapiens, NCI-H358, 2 h) was found to be 2.2 nM; in experiment [2], 3.5 nM.
Consider `C=CC(=O)N1CCN(c2nc(=O)n3c4nc(c(F)cc24)-c2c(F)cccc2OCCCCc2cnc(C(C)C)c-3c2)[C@H](C)C1` [Example 16b, 19,22-difluoro-2-[(2S)-2-methyl-4-(prop-2-enoyl)piperazin-1-yl]-7-(propan-2-yl)-11,12,13,14-tetrahydro-4H-1,20-(ethanediylidene)-6,10-(metheno)pyrimido[1,6-k][1,8,11,13]benzoxatriazacyclohexadecin-4-one], for which the figures for the IC50 in experiment [1] and in experiment [2] were 109 nM and 10 nM, respectively.
